Measurements as given in patent US7622551B2, “Leukocyte stimulating peptides” (POSCO, priority 2004, dated 2009).
Values belong to the substance of their own block, whether it stands above or below them. Where no end group is shown, it is not given here.

Experiments:
[1] = system: differentiated HL60 cells; assay: Arachidonic acid (AA) release in [3H]AA-labeled dHL60 cells; assay type: cell-based, human; conditions: for AA release stimulating activity (in words) / Effect of cPLA2-specific inhibitors AACOCF3 and MAFP on peptide-induced AA release: dHL60 cells; for AA release stimulating activity (in words): 10 μM; for Effect of cPLA2-specific inhibitors AACOCF3 and MAFP on peptide-induced AA release: inhibitor pretreatment 15 min, 1 μM peptide; for Folds of increase (% of total), arachidonic acid release: differentiated HL60 cells, 10 μM of peptide
Method: (§1) U937 (human histiocytic lymphoma cells), HL60 (human promyelocytic leukemia cells), Raw 264.7 (mouse macrophage), Jurkat (human acute T cell leukemia), PC12 (rat adrenal pheochromocytoma cells), 3Y1 (Rat embryonic fibroblasts), 3T3L1 (preadipocytes), and NCI-H292 (human mucoepidermoid pulmonary carcinoma cells) were obtained from the American Type Culture Collection (Rockville, Md.) and maintained as recommended. FPR- or FPRL1 expressing RBL-2H3 cells were cultured as described previously (He et al. J. Immunol. 2000. 165: 4598-4605). Cells were maintained at about 1×10^6 cells/ml under standard incubator conditions (humidified atmosphere, 95% air, 5% CO2, at 37° C.). HL60 cells were induced to differentiate into the granulocyte phenotype by adding dimethylsulfoxide (DMSO) (final concentration 1.25%, v/v) for 4 days to the culture medium, as described previously (Itoh et al. Blood. 1998. 92: 1432-1441).
For the initial screening of the PS-SPCLs, we measured the AA release stimulating activity of each peptide pool. Cultured dHL60 cells (10^7 cells/ml) were pre-labeled with 0.5 μCi/ml of (^3H)-AA in RPMI 1640 medium containing 10% FBS for 90 min at 37° C. in a humidified incubator supplied with 95% air and 5% CO2, as described previously (Bae et al. J. Immunol. 2000. 164: 4089-4096). The labeled cells were then washed twice with serum-free RPMI 1640 and incubated in RPMI 1640 medium containing 0.1% fatty acid-free BSA for 15 min at 37° C. After discarding the medium, the cells were stimulated with various concentrations of peptide for the indicated times. Radioactivity in the medium and of collected cells was determined with a liquid scintillation counter. When investigating the effects of inhibitors, cells were preincubated with the indicated concentrations of each inhibitor or vehicle for 15 min prior to stimulation.

[2] = system: human monocytes; assay: Chemotaxis assay (modified Boyden chamber), monocytes; assay type: cell-based; conditions: FIG. 6B; control peptide at concentrations less than 10 μM
Method: FIGS. 6A and 6B show chemotactic effect of peptides. Assays were performed using a modified Boyden chamber assay, as described in the Examples. Isolated human neutrophils (A) or monocytes (B) (1×10^6 cells/ml in serum free RPMI) were added to the upper wells of a 96-well chemotaxis chamber and migration across a 3 μm pore size (5 μm for monocytes) polycarbonate membrane was assessed after 2 hrs incubation at 37° C. The numbers of migrated cells were determined by counting them in a high power field (400×). Results are presented as means±S.E. of three independent experiments each performed in duplicate.
Chemotaxis assays were performed using multiwell chambers (Neuroprobe Inc., Gaithersburg, Md.) (Bae et al. Blood. 2001. 97: 2854-2862). Briefly, prepared human monocytes were suspended in RPMI at a concentration of 1×10^6 cells/ml, and 25 μl of the suspension was then placed onto the upper well of a chamber separated by a 5 μm polyhydrocarbon filter (3 μm pores size not polyvinylpyrrolidone coated, as is needed for neutrophils) from peptides or N-formyl-methionyl-leucyl-phenylalanine (fMLF) in the lower well. After incubation for 2 hours (90 minutes for neutrophils) at 37° C., non-migrated cells were removed by scraping, and cells that migrated across the filter were dehydrated, fixed, and stained with hematoxylin (Sigma, St. Louis, Mo.). Stained cells were counted in five randomly chosen high power fields (HPF) (400×) (Bae et al. Blood. 2001. 97: 2854-2862).

[3] = molecular target: T1, FPRL1 (Homo sapiens, UniProt P25090); assay: [Ca2+]i increase in FPRL1-expressing RBL-2H3 cells; assay type: cell-based; conditions: 10 μM of each peptide (FIG. 7)
T1 construct: expressed in transfected cells; host or cells: RBL-2H3
T1 sequence (P25090 1-351): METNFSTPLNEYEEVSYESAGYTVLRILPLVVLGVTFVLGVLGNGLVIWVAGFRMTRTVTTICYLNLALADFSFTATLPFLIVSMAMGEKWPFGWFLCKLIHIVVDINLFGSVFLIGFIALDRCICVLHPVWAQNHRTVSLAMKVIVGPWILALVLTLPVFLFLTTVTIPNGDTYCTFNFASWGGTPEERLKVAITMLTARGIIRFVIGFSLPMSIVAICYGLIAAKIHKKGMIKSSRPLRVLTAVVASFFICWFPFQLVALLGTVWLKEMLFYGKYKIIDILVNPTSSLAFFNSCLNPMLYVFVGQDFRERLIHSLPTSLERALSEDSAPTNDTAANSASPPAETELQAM
Method: as §1
(§2) The level of [Ca^2+]i was determined using Grynkiewicz's method using fura-2/AM (Grynkiewicz et al. J. Biol. Chem. 1985. 260: 3440-3550). Briefly, prepared cells were incubated with 3 μM of fura-2/AM at 37° C. for 50 min in serum-free RPMI 1640 medium under continuous stirring. 2×10^6 cells were aliquoted for each assay in Ca^2+ free Locke's solution (154 mM NaCl, 5.6 mM KCl, 1.2 mM MgCl2, 5 mM HEPES, pH 7.3, 10 mM glucose, and 0.2 mM EGTA). Fluorescence changes were measured at the dual excitation wavelength of 340 nm and 380 nm, and the calculated fluorescence ratio was translated into [Ca^2+]i.

[4] = system: differentiated HL60 cells; assay: [Ca2+]i increase in fura-2 loaded dHL60 cells; assay type: cell-based, human; conditions: for [Ca^2+]i: differentiated HL60 cells, fura-2, 1 μM of peptide
Method: as §1, §2

[5] = system: undifferentiated HL60 cells; assay: [Ca2+]i increase in undifferentiated HL60 cells; assay type: cell-based, human; conditions: for [Ca^2+]i increase in undifferentiated HL60 cells: peptides 10 μM (FIG. 8)
Method: as §1, §2

- [Ca^2+]i increase in FPRL1-expressing RBL-2H3 cells [3]: induced calcium increase
Substance: MKYYKM-NH2 [Peptide P21]
- AA release stimulating activity (in words) [1]: most potent
- Effect of cPLA2-specific inhibitors AACOCF3 and MAFP on peptide-induced AA release [1]: blocked
- Folds of increase (% of total), arachidonic acid release [1]: 2.86 ± 0.426 folds
- Cellular chemotaxis in human monocytes (in words) [2]: induced cellular chemotaxis
- [Ca^2+]i [4]: 122 ± 15.7 nM
- [Ca^2+]i increase in undifferentiated HL60 cells [5]: did not affect

Substance: MKYYYM-NH2 [Peptide P24]
- AA release stimulating activity (in words) [1]: most potent
- Effect of cPLA2-specific inhibitors AACOCF3 and MAFP on peptide-induced AA release [1]: blocked
- Folds of increase (% of total), arachidonic acid release [1]: 2.93 ± 0.323 folds
- Cellular chemotaxis in human monocytes (in words) [2]: induced cellular chemotaxis
- [Ca^2+]i increase in FPRL1-expressing RBL-2H3 cells [3]: induced calcium increase
- Concentration of maximal activity, [Ca^2+]i increase ([4]; dHL60 cells, data not shown): approximately 3 μM
- [Ca^2+]i [4]: 165 ± 23.4 nM
- [Ca^2+]i increase in undifferentiated HL60 cells [5]: dramatically induced
- Effect of PTX on peptide-stimulated calcium signaling ([5]; undifferentiated HL60 cells, data not shown): partially inhibited

- [Ca^2+]i increase in FPRL1-expressing RBL-2H3 cells [3]: induced calcium increase
Substance: RKYHVM-NH2 [Peptide P14]
- AA release stimulating activity (in words) [1]: most potent
- Effect of cPLA2-specific inhibitors AACOCF3 and MAFP on peptide-induced AA release [1]: blocked
- Folds of increase (% of total), arachidonic acid release [1]: 2.23 ± 0.403 folds
- Cellular chemotaxis in human monocytes (in words) [2]: induced cellular chemotaxis
- [Ca^2+]i [4]: 85 ± 9.5 nM
- [Ca^2+]i increase in undifferentiated HL60 cells [5]: did not affect
